Assay results reported in ChEMBL document CHEMBL3797140, “Acridin-3,6-dialkyldithiourea hydrochlorides as new photosensitizers for photodynamic therapy of mouse leukemia cells” (Bioorg Med Chem, 2016).

Tests used:
L1210 = test: Phototoxicity against mouse L1210 cells assessed as cell viability preincubated for 1 hr followed by 1.05 J/cm2 UV-A irradiation measured after 48 hrs by MTT assay; format: functional, cell-based; settings: L1210, light or radiation study
[1] = Dark toxicity against mouse NIH/3T3 cells assessed as cell viability after 48 hrs by MTT assay; format: cell-based, NIH3T3
[2] = Dark toxicity against mouse L1210 cells assessed as cell viability after 48 hrs by MTT assay; format: cell-based
[3] = Phototoxicity against mouse NIH/3T3 cells assessed as cell viability preincubated for 1 hr followed by 1.05 J/cm2 UV-A irradiation measured after 48 hrs by MTT assay; format: cell-based; settings: NIH3T3, light or radiation study

| Structure (SMILES) | IC50 (L1210) [µM] | IC50 at 48 h [1] [µM] | IC50 at 48 h [2] [µM] | IC50 [3] [µM] |
| --- | --- | --- | --- | --- |
| CCCCCNC(=S)Nc1ccc2cc3ccc(NC(=S)NCCCCC)cc3nc2c1 | 0.6 | 37.5 | 9.2 | 3.7 |
| CCNC(=S)Nc1ccc2cc3ccc(NC(=S)NCC)cc3nc2c1 | 0.9 | 40.2 | 12 | 2.8 |
